# Assay results: US9056832B2, “Pyridine compounds and the users thereof” (Purdue Pharma L.P., priority 2010, dated 2015)
# Target: human Nav1.7 (Homo sapiens (Human), UniProt Q15858)
# Assay: FLIPR or FLIPR TETRA sodium dye assay with KCl and test article pre-incubation
# Format: cell-based
# Conditions: read-out: Nav1.7 IC50 (μM) ± SEM
# Chain of human Nav1.7 (Q15858 other isoform, or with tags, fused parts or gaps): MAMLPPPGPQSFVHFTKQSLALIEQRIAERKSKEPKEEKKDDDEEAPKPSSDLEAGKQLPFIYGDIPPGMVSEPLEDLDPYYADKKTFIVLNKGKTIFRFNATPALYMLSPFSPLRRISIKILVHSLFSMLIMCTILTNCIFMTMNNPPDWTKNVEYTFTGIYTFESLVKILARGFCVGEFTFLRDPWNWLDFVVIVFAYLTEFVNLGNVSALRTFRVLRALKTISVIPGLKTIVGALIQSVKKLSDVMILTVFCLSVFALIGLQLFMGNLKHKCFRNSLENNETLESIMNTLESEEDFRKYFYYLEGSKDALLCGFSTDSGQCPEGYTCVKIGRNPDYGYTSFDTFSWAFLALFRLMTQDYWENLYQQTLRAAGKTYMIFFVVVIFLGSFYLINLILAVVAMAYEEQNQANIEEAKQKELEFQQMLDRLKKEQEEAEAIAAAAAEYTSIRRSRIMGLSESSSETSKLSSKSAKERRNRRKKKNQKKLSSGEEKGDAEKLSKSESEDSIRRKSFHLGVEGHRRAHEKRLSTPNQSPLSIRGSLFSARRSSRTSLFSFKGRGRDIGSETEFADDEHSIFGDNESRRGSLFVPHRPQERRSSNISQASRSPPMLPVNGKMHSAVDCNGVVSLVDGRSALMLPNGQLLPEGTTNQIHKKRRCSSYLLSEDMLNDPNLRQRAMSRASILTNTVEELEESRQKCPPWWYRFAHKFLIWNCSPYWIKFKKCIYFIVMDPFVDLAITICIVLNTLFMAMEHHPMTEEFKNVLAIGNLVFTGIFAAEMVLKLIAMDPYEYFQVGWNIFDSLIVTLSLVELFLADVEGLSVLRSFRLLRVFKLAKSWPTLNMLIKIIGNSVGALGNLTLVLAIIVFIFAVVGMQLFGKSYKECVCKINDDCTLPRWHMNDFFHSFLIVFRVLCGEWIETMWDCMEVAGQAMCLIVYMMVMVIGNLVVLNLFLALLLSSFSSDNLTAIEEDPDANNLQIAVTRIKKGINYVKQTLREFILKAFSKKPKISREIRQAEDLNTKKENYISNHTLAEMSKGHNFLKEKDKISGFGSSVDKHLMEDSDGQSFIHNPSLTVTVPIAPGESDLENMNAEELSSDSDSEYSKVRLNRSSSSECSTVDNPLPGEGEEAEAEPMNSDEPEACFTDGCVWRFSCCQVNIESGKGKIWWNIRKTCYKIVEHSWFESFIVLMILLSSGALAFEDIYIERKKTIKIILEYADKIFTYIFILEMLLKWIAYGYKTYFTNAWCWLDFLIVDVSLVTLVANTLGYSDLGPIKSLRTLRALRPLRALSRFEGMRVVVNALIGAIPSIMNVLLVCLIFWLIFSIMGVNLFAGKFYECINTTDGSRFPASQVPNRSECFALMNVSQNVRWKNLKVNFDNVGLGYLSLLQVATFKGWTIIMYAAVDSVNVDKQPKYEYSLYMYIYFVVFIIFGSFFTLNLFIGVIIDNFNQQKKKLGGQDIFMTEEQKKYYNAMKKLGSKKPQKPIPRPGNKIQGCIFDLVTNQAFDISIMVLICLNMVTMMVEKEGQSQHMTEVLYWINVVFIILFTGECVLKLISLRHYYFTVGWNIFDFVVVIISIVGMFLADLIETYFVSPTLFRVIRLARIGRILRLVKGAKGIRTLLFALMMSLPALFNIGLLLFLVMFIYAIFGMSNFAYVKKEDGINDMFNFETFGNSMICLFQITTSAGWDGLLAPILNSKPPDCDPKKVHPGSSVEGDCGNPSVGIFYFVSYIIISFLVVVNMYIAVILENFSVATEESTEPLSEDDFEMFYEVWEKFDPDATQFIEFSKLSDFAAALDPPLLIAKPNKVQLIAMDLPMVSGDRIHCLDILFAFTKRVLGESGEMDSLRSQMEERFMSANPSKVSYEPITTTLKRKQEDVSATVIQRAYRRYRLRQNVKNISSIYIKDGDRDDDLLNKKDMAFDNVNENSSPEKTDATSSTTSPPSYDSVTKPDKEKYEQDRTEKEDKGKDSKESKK
row,SMILES,IC50 [µM]
1,"Cc1cc(C(=O)NCCN2CCCCC2)cc(-c2ccc(Oc3ccc(F)cc3)cc2)n1 [compound 107, 2-(4-(4-fluorophenoxy)phenyl)-6-methyl-N-(2-(piperidin-1-yl)ethyl) isonicotinamide]",0.4 ± 0.12
2,"N#Cc1cc(NCCCn2ccnc2)cc(-c2ccc(Oc3ccc(F)cc3)cc2)n1 [compound 110, 4-((3-(1H-imidazol)-1-yl)propyl)amino)-6-(4-(4-fluorophenoxy) phenylpicolinonitrile]",0.62 ± 0.08
3,OC[C@H](O)c1cc(NCCN2CCOCC2)cc(-c2ccc(Oc3ccc(F)cc3)cc2)n1 [compound 111],0.71 ± 0.13
4,"CN(c1ccccc1)c1cc(C(=O)O)nc(-c2ccc(Oc3ccc(F)cc3)cc2)c1 [compound 114, 6-(4-(4-fluorophenoxy)phenyl)-4-(methyl(phenyl)amino)picolinic acid]",0.68 ± 0.6
5,"CN(c1ccc(C(=O)O)cc1)c1cc(C(=O)O)nc(-c2ccc(Oc3ccc(F)cc3)cc2)c1 [compound 117, 4-((4-carboxyphenyl)(methy)amino)-6-(4-(4-fluorophenoxy)phenyl) picolinic acid]",> 20
6,"N#CCCN(c1ccccc1)c1cc(C(=O)O)nc(-c2ccc(Oc3ccc(F)cc3)cc2)c1 [compound 118, 4-((2-cyanoethyl) (phenyl)amino)-6-(4-(4fluorophenoxy)phenyl)picolinic acid]",2.5 ± 0.3
7,"CN(c1ccc(C(=O)O)cc1)c1cc(-c2ccc(Oc3ccc(F)cc3)cc2)cc(C(=O)O)n1 [compound 120, 6-((4-carboxyphenyl) (methy)amino)-4-(4-(4-fluorophenoxy)phenyl) picolinic acid]",9.3 ± 0.54
8,"NC(=O)c1cc(C2=CCNCC2)cc(-c2ccc(Oc3ccc(F)cc3)cc2)n1 [compound 122, 6-(4-(4-fluorophenoxy)phenyl)-1′,2′,3′,6′-tetrahydro-[4,4'-bipyridine]-2-carboxamide]",0.14 ± 0.03
9,"O=S(=O)(Nc1ccc(F)cc1)c1ccc(-c2cccc([C@H](O)CO)n2)cc1 [compound 124, (S)-4-(6-(1,2-dihydroxyethyl)pyridin-2-yl)-N-(4-fluorophenyl) benzenesulfonamide]",2.5 ± 0.34
10,"N#Cc1ccc(Oc2ccc(-c3cc([C@@H](O)CO)cc(C(N)=O)n3)cc2)cc1C(F)(F)F [compound 127, (R)-6-(4-(4-cyano-3-(trifluoromethyl)phenoxy)phenyl)-4-(1,2-dihydroxyethyl) picolinamide]",1.13 ± 0.11

# Same assay, conditions: recombinant human Nav1.7 in HEK293 cells; CoroNa Green sodium dye; veratridine + scorpion venom; read-out: Nav1.7 IC50 (μM) ± SEM
row,SMILES,IC50 [µM]
1,"CC(C)NC(=O)N1CCN(c2cc(C#N)nc(-c3ccc(Oc4ccc(F)cc4)cc3)c2)CC1 [compound 82, 4-(2-cyano-6-(4-(4-fluorophenoxy)phenyl)pyridin-4-yl)-N-isopropylpiperazine-1-carboxamide]",1.94 ± 0.21
2,"N#Cc1cc(N2CCN(C(=N)N)CC2)cc(-c2ccc(Oc3ccc(F)cc3)cc2)n1 [compound 83, 4-(2-cyano-6-(4-(4-fluorophenoxy)phenyl)pyridin-4-yl) piperazine-1-carboximidamide]",1.95 ± 0.52
3,"NC(=O)c1cc(NC(=O)Nc2ccccc2)cc(-c2ccc(Oc3ccc(F)cc3)cc2)n1 [compound 84, 6-(4-(4-fluorophenoxy)phenyl)-4-(3-phenylureido) picolinamide]",4.11 ± 0.93
4,"O=C(O)c1cc(C(=O)NCCN2CCCCC2)nc(-c2ccc(Oc3ccc(F)cc3)cc2)c1 [compound 85, 2-(4-(4-fluorophenoxy)phenyl)-6-((2-(piperidin-1-yl)ethyl)carbamoyl)iso nicotinic acid]",6.59 ± 2.17
5,"O=C(NCCN1CCCCC1)c1cc(-c2nnn[nH]2)cc(-c2ccc(Oc3ccc(F)cc3)cc2)n1 [compound 86, 6-(4-(4-fluorophenoxy)phenyl)-N-(2-(piperidin-1-yl)ethyl)-4-(1H-tetrazol-5-yl) picolinamide]",9.21 ± 1.15
6,"NC(=O)c1cc(NC(=O)NCC(=O)O)cc(-c2ccc(Oc3ccc(F)cc3)cc2)n1 [compound 87, 2-(3-(2-carbamoyl-6-(4-(4-fluorophenoxy)phenyl)pyridin-4-yl)ureido)acetic acid]",> 20
7,"C[C@H](NCc1cccc(-c2ccc(Oc3ccc(F)cc3)cc2)n1)C(N)=O [compound 88, (S)-2-({6-[4-(4-Fluoro-phenoxyl)-phenyl]-pyridin-2-yl-methyl}-amino) propionamide]",0.23 ± 0.09
8,"NC(=O)c1cc(-c2ccc(Oc3ccc(F)cc3)cc2)nc([C@@H](O)CO)c1 [compound 89, (R)-2-(1,2-dihydroxyethyl)-6-(4-(4-fluorophenoxy)phenyl) isonicotinamide]",7.13 ± 0.5
9,"CN(c1ccc(C(=O)O)cc1)c1cc(C(N)=O)nc(-c2ccc(Oc3ccc(F)cc3)cc2)c1 [compound 91, 4-((2-carbamoyl-6-(4-(4-fluorophenoxy)phenyl)pyridin-4-yl)(methyl)amino)benzoic acid]",> 20
10,"O=C(O)CN(c1ccccc1)c1cc(C(=O)O)nc(-c2ccc(Oc3ccc(F)cc3)cc2)c1 [compound 92, 4-((carboxymethyl) (phenyl)amino)-6-(4-(4-fluorophenoxy)phenyl)picolinic acid]",3.83 ± 0.64
11,"O=C(O)c1cc(-n2cc(C(=O)O)c3ccccc32)cc(-c2ccc(Oc3ccc(F)cc3)cc2)n1 [compound 93, 1-(2-carboxy-6-(4-(4-fluorophenoxy)phenyl)pyridin-4-yl)-1H-indole-3-carboxylic acid]",> 20
12,"N#CCCN(c1ccccc1)c1cc(-c2ccc(Oc3ccc(F)cc3)cc2)cc(C(=O)O)n1 [compound 94, 6-((2-cyanoethyl) (phenyl)amino)-4-(4-(4-fluorophenoxy)phenyl)picolinic acid]",2.17 ± 0.66
13,"NC(=O)c1cc(-c2ccc(Oc3ccc(F)cc3)cc2)cc([C@H](O)CO)n1 [compound 95, (S)-6-(1,2-dihydroxyethyl)-4-(4-(4-fluorophenoxy)phenyl)picolinamide]",0.17 ± 0.08
14,"NC(=O)c1cc(-c2ccc(Oc3ccc(F)cc3)cc2)cc([C@@H](O)CO)n1 [compound 96, (R)-6-(1,2-dihydroxyethyl)-4-(4-(4-fluorophenoxy)phenyl)picolinamide]",0.12 ± 0.03
15,"NC(=O)CN(c1ccccc1)c1cc(-c2ccc(Oc3ccc(F)cc3)cc2)cc(C(N)=O)n1 [compound 98, 6-((2-amino-2-oxoethyl)(phenyl)amino)-4-(4-(4-fluorophenoxy)phenyl)picolinamide]",0.22 ± 0.07
16,"N#Cc1cccc2c1ccn2-c1cc(C(N)=O)nc(-c2ccc(Oc3ccc(F)cc3)cc2)c1 [compound 99, 4-(4-cyano-1H-indol-1-yl)-6-(4-(4-fluorophenoxy)phenyl) picolinamide]",0.1 ± 0.03

row,SMILES,IC50 [µM]
1,"N#Cc1cccc2c1ccn2-c1cc(-c2ccc(Oc3ccc(F)cc3)cc2)cc(C(N)=O)n1 [compound 100, 6-(4-cyano-1H-indol-1-yl)-4-(4-(4-fluorophenoxy)phenyl) picolinamide]",0.27 ± 0.03
2,"N#Cc1cccc2c1ccn2-c1cc(C(=O)O)nc(-c2ccc(Oc3ccc(F)cc3)cc2)c1 [compound 101, 4-(4-cyano-1H-indol-1-yl)-6-(4-(4-fluorophenoxy)phenyl) picolinic acid]",0.27 ± 0.08
3,"NC(=O)c1cc(CN2CCN(CC(=O)O)CC2)cc(-c2ccc(Oc3ccc(F)cc3)cc2)n1 [compound 104, 2-(4-((2-carbamoyl-6-(4-(4-fluorophenoxy)phenyl)pyridine-4-yl)methyl)piperazin-1-yl) acetic acid]",2.7 ± 0.26
4,"O=C1NCCN1CCNCc1ccnc(-c2ccc(Oc3ccc(F)cc3)cc2)c1 [compound 105, 1-(2-(((2-(4-(4-fluorophenoxy)phenyl)pyridin-4-yl)methyl)amino)ethyl) imidazolidin-2-one]",0.53 ± 0.08
5,"N#Cc1cc(CNCCN2CCNC2=O)cc(-c2ccc(Oc3ccc(F)cc3)cc2)n1 [compound 106, 6-(4-(4-fluorophenoxy)phenyl)-4-(((2-(2-oxoimidazolidin-1-yl)ethyl)amino)methyl) picolinonitrile]",2.01 ± 0.44
6,"NC(=O)CN1CCN(c2cc(Cl)nc(-c3ccc(Oc4ccc(F)cc4)cc3)c2)CC1 [compound 109, 2-(4-(2-chloro-6-(4-(4-fluorophenoxy)phenyl)pyridine-4-yl)piperazin-1-yl) acetamide]",3.77 ± 0.56
7,"N#Cc1cc([C@H](O)CO)cc(-c2ccc(Oc3ccc(F)cc3)cc2)n1 [compound 112, (S)-4-(1,2-dihydroxyethyl)-6-(4-(4-fluorophenoxy)phenyl)picolinonitrile]",2.12 ± 0.54
8,"CN(c1ccccc1)c1cc(-c2ccc(Oc3ccc(F)cc3)cc2)cc(C(N)=O)n1 [compound 113, 4-(4-(4-fluorophenoxy)phenyl)-6-(methyl(phenyl)amino)picolinamide]",0.36 ± 0.8
9,"N#CCCN(c1ccccc1)c1cc(-c2ccc(Oc3ccc(F)cc3)cc2)cc(C(N)=O)n1 [compound 115, 6-((2-cyanoethyl) (phenyl)amino)-4-(4-(4-fluorophenoxy)phenyl)picolinamide]",0.08 ± 0.03
10,"CN(c1ccc(C(=O)O)cc1)c1cc(-c2ccc(Oc3ccc(F)cc3)cc2)cc(C(N)=O)n1 [compound 116, 4-((6-carbamoyl-4-(4-(4-fluorophenoxy)phenyl)pyridin-2-yl) (methyl)amino)benzoic acid]",2.71 ± 0.73
11,"CN(c1ccccc1)c1cc(-c2ccc(Oc3ccc(F)cc3)cc2)cc(C(=O)O)n1 [compound 119, 4-(4-(4-fluorophenoxy)phenyl)-6-(methyl (phenyl)amino) picolinic acid]",2.46 ± 0.8
12,"O=C(O)CN(c1ccccc1)c1cc(-c2ccc(Oc3ccc(F)cc3)cc2)cc(C(=O)O)n1 [compound 121, 6-((carboxymethyl) (phenyl)amino)-4-(4-(4-fluorophenoxy)phenyl)picolinic acid]",6.24 ± 0.81
13,"NC(=O)c1cc([C@@H](O)CO)cc(-c2ccc(Oc3cc(Cl)ccc3F)cc2)n1 [compound 123, (R)-6-(4-(5-chloro-2-fluorophenoxy)phenyl)-4-(1,2-dihydroxyethyl) picolinamide]",0.17 ± 0.03
14,"O=C(NC(CO)CO)c1cc(-c2ccc(Oc3ccc(F)cc3)cc2)cc(Cl)n1 [compound 125, 6-chloro-N-(1,3-dihydroxypropan-2-yl)-4-(4-(4-fluorophenoxy)phenyl)picolinamide]",0.77 ± 0.13
15,"N#Cc1cccc2c1ccn2-c1cc(-c2ccc(Oc3ccc(F)cc3)cc2)cc(C(=O)O)n1 [compound 126, 6-(4-cyano-1H-indol-1-yl)-4-(4-(4-fluorophenoxy)phenyl) picolinic acid]",1.05 ± 0.13
